Source: PMC9841524, “Structure-Based Rational Design of Small α-Helical Peptides with Broad-Spectrum Activity against Multidrug-Resistant Pathogens” (Journal of Medicinal Chemistry, 2022)
Where two headings read alike, the source gives them in different places. Where no end group is shown, it is not given here.

Key:
[1] = system: S. aureus (ATCC 29213); assay: MIC, standard microtiter dilution (CLSI); type: cell-based; conditions: for MIC, S. aureus (ATCC 29213): broth microdilution (CLSI), CAMHB, 37 °C, 24 h
Method: (§1) Description of the characteristics and growth conditions of various bacterial strains used in the study are provided in the Supporting Information (Table S3). Antibacterial susceptibility testing was carried out using a standard microtiter dilution method recommended by the clinical and laboratory standard institute (CLSI) and measured as a minimum inhibitory concentration (MIC), the lowest peptide concentration that inhibited bacterial growth. Briefly, the overnight grown cultures in the recommended broth for each bacterial strain were diluted in cation-adjusted Mueller Hinton Broth (CAMHB) to give an inoculum of 10^6 colony-forming units (CFU)/mL. A 2-fold serially diluted test peptide solution (100 μL) was added to the microtiter plates. After adding bacterial suspension (100 μL), the plates were incubated at 37 °C for 24 h, and the MICs were determined. The same protocol was used to determine the MICs in the presence of salts and serum except using the media supplemented with various cationic salts (150 mM NaCl, 4.5 mM KCl, 6 mM NH4Cl, 1 mM MgCl2, and 2 mM CaCl2) or 25% FBS. The data was acquired from three independent assays performed in triplicate.
(§2) The bacterial strains employed in this study were obtained from the American Type Culture Collection (ATCC). Each strain was propagated as recommended by the ATCC, and each strain was stored as a frozen glycerol stock at -80°C. A bacterial colony was grown on the appropriate agar as indicated in Table S1 and was used to inoculate the appropriate broth. The culture was incubated at the appropriate conditions, as mentioned in Table S1. Following the incubation, the culture was diluted to an optical density 625 nm (OD625) of 0.1 in cation adjusted Mueller Hinton Broth (CAMHB), which is equivalent to 1 × 10^8 CFU/mL. The culture was further diluted to 1 × 10^6 CFU/mL, which was used to conduct the MIC determination assay. For the S. pneumoniae strains, CAMHB + 2.5% lysed horse blood was required for the assay. The strains with their […]
(§3) Table S3. Description of the characteristics and growth conditions of various bacterial strains

[2] = system: MRSA (ATCC BAA-1556); conditions: broth microdilution (CLSI), CAMHB, 37 °C, 24 h
Method: as §1, §2, §3

[3] = system: E. coli (ATCC 25922); conditions: broth microdilution (CLSI), CAMHB, 37 °C, 24 h
Method: as §1, §2, §3

[4] = system: P. aeruginosa (ATCC 27883); assay: MIC, standard microtiter dilution (CLSI); type: cell-based, Pseudomonas aeruginosa; conditions: broth microdilution (CLSI), CAMHB, 37 °C, 24 h
Method: as §1, §2, §3

[5] = system: human red blood cells (hRBCs); assay: Hemolytic assay; type: cell-based; conditions: 2 h, 37 °C
Method: The hemolytic activity of all peptides (1a–8d) was determined using hRBC. The assay was conducted by adding 75 μL of 2-fold serially diluted peptides to 75 μL of hRBC suspension (4% in PBS). The plates were incubated for 2 h at 37 °C without agitation. In order to determine the hemolysis at each tested concentration of peptides, the plate was centrifuged, and 100 μL of the supernatant was transferred to another 96-well plate to determine hemoglobin release spectrophotometrically at 567 nm. Percent hemolysis was calculated by the following formula [drawing 1] where A represents the absorbance of the peptide sample at 567 nm and A0 and At represent zero percent and 100% hemolysis determined in phosphate buffer saline and 1% Triton X-100, respectively.

[6] = system: K. pneumoniae (ATCCBAA-1705); assay: MIC, standard microtiter dilution (CLSI); type: cell-based, Klebsiella pneumoniae; conditions: broth microdilution (CLSI), CAMHB, 37 °C, 24 h
Method: as §1, §2, §3

[7] = 10^6 CFU/mL, highest MIC of three independent experiments in triplicate
[8] = hRBC suspension 4% in PBS, hemoglobin release at 567 nm, 1% Triton X-100 = 100%
[9] = value in parentheses (μM), hRBC 4% in PBS, 567 nm

Substance | MIC against S. aureus [1] | MIC, S. aureus (ATCC 29213) [1, 7] | MIC, S. aureus (ATCC 29213) ([1]; value in parentheses (μM)) | MIC, MRSA (ATCC BAA-1556) [2, 7] | MIC, MRSA (ATCC BAA-1556) ([2]; value in parentheses (μM)) | MIC, E. coli (ATCC 25922) [3, 7] | MIC, E. coli (ATCC 25922) ([3]; value in parentheses (μM)) | MIC, P. aeruginosa (ATCC 27883) [4, 7] | MIC, P. aeruginosa (ATCC 27883) ([4]; value in parentheses (μM)) | HC50 (concentration at which 50% hemolysis was observed) [5, 8] | HC50 (concentration at which 50% hemolysis was observed) [5, 9] | MIC, K. pneumoniae (ATCCBAA-1705) [6, 7] | MIC, K. pneumoniae (ATCCBAA-1705) ([6]; value in parentheses (μM))
RWARRWARWWR-NH2 [5b] | 50 µg/mL | 50 µg/mL | 29.67 µM | 100 µg/mL | 59.35 µM | 100 µg/mL | 59.35 µM | 100 µg/mL | 59.35 µM | > 500 µg/mL | > 296.74 µM | > 100 µg/mL | > 59.35 µM
RWARRWWR-NH2 [2c] | – | > 100 µg/mL | > 78.65 µM | > 100 µg/mL | > 78.65 µM | > 100 µg/mL | > 78.65 µM | > 100 µg/mL | > 78.65 µM | > 500 µg/mL | > 393.23 µM | > 100 µg/mL | > 78.65 µM
H-RAWRRAWRAW-NH2 [4a] | – | > 100 µg/mL | > 70.74 µM | > 100 µg/mL | > 70.74 µM | > 100 µg/mL | > 70.74 µM | > 100 µg/mL | > 70.74 µM | > 500 µg/mL | > 353.69 µM | > 100 µg/mL | > 70.74 µM
RWWRAAWRR-NH2 [3d] | – | > 100 µg/mL | > 74.48 µM | > 100 µg/mL | > 74.48 µM | > 100 µg/mL | > 74.48 µM | > 100 µg/mL | > 74.48 µM | > 500 µg/mL | > 372.42 µM | > 100 µg/mL | > 74.48 µM
RWIRRWIRWWR-NH2 [5c] | – | 50 µg/mL | 28.26 µM | 50 µg/mL | 28.26 µM | 100 µg/mL | 56.52 µM | 50 µg/mL | 28.26 µM | > 500 µg/mL | > 282.62 µM | 100 µg/mL | 56.52 µM
RRWRRWW-NH2 [1d] | – | 100 µg/mL | 83.30 µM | 100 µg/mL | 83.30 µM | > 100 µg/mL | > 83.30 µM | > 100 µg/mL | > 83.30 µM | > 500 µg/mL | > 416.52 µM | > 100 µg/mL | > 83.30 µM
RWWRRAWRA-NH2 [3a] | – | > 100 µg/mL | > 74.48 µM | > 100 µg/mL | > 74.48 µM | > 100 µg/mL | > 74.48 µM | > 100 µg/mL | > 74.48 µM | > 500 µg/mL | > 372.42 µM | > 100 µg/mL | > 74.48 µM
RWRRWWR-NH2 [1a] | – | 100 µg/mL | 83.30 µM | 100 µg/mL | 83.30 µM | > 100 µg/mL | > 83.30 µM | > 100 µg/mL | > 83.30 µM | > 500 µg/mL | > 416.52 µM | > 100 µg/mL | > 83.30 µM
RAWRRWWRAA-NH2 [4b] | – | > 100 µg/mL | > 70.74 µM | > 100 µg/mL | > 70.74 µM | > 100 µg/mL | > 70.74 µM | > 100 µg/mL | > 70.74 µM | > 500 µg/mL | > 353.69 µM | > 100 µg/mL | > 70.74 µM
RWWRRAWR-NH2 [2b] | – | > 100 µg/mL | > 78.65 µM | > 100 µg/mL | > 78.65 µM | > 100 µg/mL | > 78.65 µM | > 100 µg/mL | > 78.65 µM | > 500 µg/mL | > 393.23 µM | > 100 µg/mL | > 78.65 µM
